≈ marks a conversion by molar mass, not a printed value. Read-outs that look alike come from different tables or passages of the source.
Assays:
[1] = system: A-375 malignant melanoma cells; test: In vitro antitumor activity, A-375 melanoma; format: cell-based, human
Description: 1) in vitro tumor cell viability assays using MTT and SRB dye reaction endpoints.
Sulforhodamine B (SRB) Assay for Adherent Tumor Cells
Sulforhodamine B (SRB) is a protein binding aminoxanthene dye with two sulfonic acid groups. (Lillie, R. D., H. J. Conn's Biological Stains, 9th Ed., Baltimore; Williams & Wilkins, 1977.) It quantitates whole cell protein content by the intensity of dye staining and relates this to the number of viable cells. […] The SRB assay is used for cells which normally adhere to surfaces (in this case plastic culture flasks or petri dishes) as part of their requirement for growth and division in vitro. The SRB assay is currently used by the National Cancer Institute in the anticancer drug screening program. (Skehan, et al., J Natl Cancer Inst 82:1107-1112, 1990; Rubinstein, et al., J Natl Cancer Inst 82:1113-1118, 1990.) Methodologic comparisons have shown that SRB results are linear for the number of tumor cells over a 100-fold range, and for protein content determined by a modified Lowry method or Standard Bradford (Bradford, M., Anal Biochem 72:248-254, 1976) methods. […] (Lillie, R. D., H. J. Conn's Biological Stains, 9th Ed., Baltimore; Williams & Wilkins, 1977.)
Cell cultures of 10^3 -10^7 cells growing in 96-well plastic microtiter plates are fixed with 50% trichloroacetic acid (TCA) for 30 minutes at 4° C. The cells are then stained with 0.4% (w/v) sulforhodamine B (SRB) dissolved in 1% acetic acid. Unbound dye is removed by 4 washes with 1% acetic acid, and protein-bound dye is extracted with 10 mM unbuffered Tris® base [tris(hydroxymethyl)aminomethane]. The optical density (OD) of this extracted solution is measured at […] in a microtiter plate ultraviolet absorbance detector. Cell viability is expressed as percent of control by dividing the optical densities and multiplying the result by 100.
Microculture Tetrazolium (MTT) Assay for Tumor Cells
(§1) Tumors are disaggregated into single cell suspensions using mechanical, hypoosmotic, and/or enzymatic (trypsin) methods. The cells are plated at a concentration of 3-5×10^4 per […] well into plastic 96-well plates. Growth medium containing 5-10% (vol/vol) heat-inactivated fetal bovine serum and penicillin/streptomycin (both […]) are added prior to incubation at 37° C. for 6 days. Afterwards the medium containing the drug is removed, the cells are centrifuged in fresh medium or phosphate-buffered saline (pH 7.4). A tetrazolium dye, […]-2,5-diphenyl tetrazolium (MTT), is then added. (Mossman, T., J Immunol 65:55-63, 1983.) This dye forms a colored formazan product upon activation by mitochondrial reductases in viable cells. Typically, the formazan product is solubilized in acid-propanol or DMSO. The intensity of the color is proportional to viable cell numbers and this is quantitated by spectrophotometric absorbance at 570 nm on a micro ELISA plate reader. The results are calibrated in % control absorbance from untreated tumor cells. (Alley, et al., Cancer Res 48:589-601, 1988.)
Table 3 gives the potencies of the new aziridine-1-carboxamides in a panel of human and murine tumor cells in culture. The tumor cell lines in this table are selected to represent a range of histological and growth phenotypes. Their characteristics are described below.
4.0 The Human A-375 Malignant Melanoma Cell Line was also developed by Girard, et al. (Girard, et al., J Natl Cancer Inst 51(5):1417-1423, 1973) from a human with advanced melanoma. The modal chromosome number is 67 and it has a low plating (colony forming) efficiency of 0.7% when grown on agar. These cells also form rapidly growing tumors when injected subcutaneously into immunodeficient athymic (nu/nu) mice. (Girard, et al., J Natl Cancer Inst 51(5):1417-1423, 1973.) These cells are also used in the NCI drug screening panel. (Skehan, et al., J Natl Cancer Inst 82:1107-1112, 1990.)

[2] = system: L-1210 leukemia cells (sensitive); test: MTT growth inhibition, sensitive L-1210 leukemia cells; format: cell-based, mouse; details: Sensitive L-1210, drug continuously present 8 days
Protocol: as §1, with “1988.) […]” for “1988.)”
Murine L-1210 Leukemia Cells were first described by Law, et al. from a female DBA/2 mouse exposed to topical methylcholanthrene. (Law, et al., J Natl Cancer Inst 10:179-192, 1949.) The cells represent a lymphocytic lineage and are highly tumorigenic in syngeneic DBA/2 mice, producing lethality typically 10-14 days after inoculation. This cell line has been used extensively to characterize the antitumor activity of chemotherapeutic agents. (Goldin, et al., Cancer Res (Cancer Chemotherapy Screening Data IX) 21:27-92, 1961.) The L-1210 cells have a model 40-41 chromosomes and a very high plating efficiency in suspension cultures in vitro.
(§2) *Drug continuously present for 8 days; IC50 measured by MTT dye

[3] = system: L-1210 MDR leukemia cells; test: MTT growth inhibition, multidrug-resistant L-1210 leukemia cells; format: cell-based, mouse; details: for Fold Resistance of IC50 's (MDR/S): L-1210 MDR vs sensitive, 11520 min; for IC50: MDR L-1210, drug continuously present 8 days
Protocol: as §1
In addition, the imexon analogs have also been tested in a multidrug-resistant (MDR) mouse L-1210 leukemia cell line.
L-1210 MDR Cells represent a multidrug-resistant cell line developed for resistance to the alkylating agent mitomycin C. (Dorr, et al., Biochem Pharmacol 36(19):3115-3120, 1987.) This cell line has the same general growth characteristics of the parental line, but is cross-resistant to numerous natural-product based anticancer agents. This includes anthracyclines such as doxorubicin (Adriamycin®) and vinca alkaloids such as vincristine or vinblastine.
as §2

[4] = Mus musculus, L1210, 192 h, read-out: IC50

Row | SMILES | IC50 ([1]; Homo sapiens, read-out: IC50) | IC50 [2, 4] | Fold Resistance of IC50 's (MDR/S) [3] | IC50 [3, 4] | IC50 [1] | IC50 [2] | IC50 [3]
1 | CNC(=O)N1CC1C#N (centres unmarked) [AMP 403, 2-Cyanoaziridine-1-(N-methyl)carboxamide] | 2.1 µg/mL (≈ 16.8 µM) | 1.1 µg/mL (≈ 8.79 µM) | 2.5 | 2.7 µg/mL (≈ 21.6 µM) |  |  | 
2 | N#CC1CN1C(=O)Nc1ccccc1 (centres unmarked) [AMP 404, 2-Cyanoaziridine-1-(N-phenyl)carboxamide] | 2.1 µg/mL (≈ 11.2 µM) | 0.2 µg/mL (≈ 1.07 µM) | 10.5 | 2.1 µg/mL (≈ 11.2 µM) |  |  | 
3 | CCNC(=O)N1CC1C#N (centres unmarked) [AMP 406, 2-Cyanoaziridine-1-(N-ethyl)carboxamide] | 5 µg/mL (≈ 35.9 µM) | 2 µg/mL (≈ 14.4 µM) | 1.0 | 2 µg/mL (≈ 14.4 µM) |  |  | 
4 | N#CC1CN1C(=O)Nc1ccc(Cl)cc1Cl (centres unmarked) [AMP 407, 2-Cyanoaziridine-1-[N-(2,4-dichlorophenyl)]carboxamide] | 2 µg/mL (≈ 7.81 µM) | 52.3 µg/mL (≈ 204 µM) | 0.16 | 8.4 µg/mL (≈ 32.8 µM) |  |  | 
5 | CC(C)(C)NC(=O)N1CC1C#N (centres unmarked) [AMP 410, 2-Cyanoaziridine-1-(N-t-butyl)carboxamide] | 69.9 µg/mL (≈ 418 µM) | 22 µg/mL (≈ 132 µM) | 1.4 | 30.7 µg/mL (≈ 184 µM) |  |  | 
6 | N#CC1CN1C(=O)NCc1ccccc1 (centres unmarked) [AMP 412, 2-Cyanoaziridine-1-(N-benzyl)carboxamide] | 2.2 µg/mL (≈ 10.9 µM) | 0.8 µg/mL (≈ 3.98 µM) | 2.6 | 2.1 µg/mL (≈ 10.4 µM) |  |  | 
7 | N#CC1CN1C(=O)NC1CCCCC1 (centres unmarked) [AMP 413, 2-Cyanoaziridine-1-(N-cyclohexyl)carboxamide] | 6.7 µg/mL (≈ 34.7 µM) | 1.4 µg/mL (≈ 7.24 µM) | 2.2 | 3.1 µg/mL (≈ 16 µM) |  |  | 
8 | CCCCNC(=O)N1CC1C#N (centres unmarked) [AMP 414, 2-Cyanoaziridine-1-(N-butyl)carboxamide] | 2.5 µg/mL (≈ 15 µM) | 2 µg/mL (≈ 12 µM) | 1.0 | 2 µg/mL (≈ 12 µM) |  |  | 
9 | N#CC1CN1C(=O)Nc1ccc(F)cc1 (centres unmarked) [AMP 415, 2-Cyanoaziridine-1-[N-(4-fluorophenyl)]carboxamide] | 0.7 µg/mL (≈ 3.41 µM) | 1.5 µg/mL (≈ 7.31 µM) | 0.8 | 1.2 µg/mL (≈ 5.85 µM) |  |  | 
10 | N#CC1CN1C(=O)Nc1ccc(C(F)(F)F)cc1 (centres unmarked) [AMP 416, 2-Cyanoaziridine-1-[N-(4-trifluorophenyl)]carboxamide] | 3 µg/mL (≈ 11.8 µM) | 2 µg/mL (≈ 7.84 µM) | 0.9 | 1.8 µg/mL (≈ 7.05 µM) |  |  | 
11 | N#CC1CN1C(=O)Nc1ccc([N+](=O)[O-])cc1 (centres unmarked) [AMP 417, 2-Cyanoaziridine-1-[N-(4-nitrophenyl)]carboxamide] | 0.9 µg/mL (≈ 3.88 µM) | 0.6 µg/mL (≈ 2.58 µM) | 1.0 | 0.6 µg/mL (≈ 2.58 µM) |  |  | 
12 | CCOC(=O)c1ccc(NC(=O)N2CC2C#N)cc1 (centres unmarked) [AMP 419, 2-Cyanoaziridine-1-[N-(4-ethoxycarbonylphenyl)]carboxamide] | 2 µg/mL (≈ 7.71 µM) | 2.5 µg/mL (≈ 9.64 µM) | 1.2 | 3 µg/mL (≈ 11.6 µM) |  |  | 
13 | CCOC(=O)CNC(=O)N1CC1C#N (centres unmarked) [AMP 420, 2-Cyanoaziridine-1-[N-(ethoxycarbonyl)methyl]carboxamide] | 10 µg/mL (≈ 50.7 µM) | 2.5 µg/mL (≈ 12.7 µM) | 1.0 | 2.5 µg/mL (≈ 12.7 µM) |  |  | 
14 | N#CC1CN1C(=O)Nc1cccnc1 (centres unmarked) [AMP 421, 2-Cyanoaziridine-1-[N-(3-pyridyl)]carboxamide] | 2.3 µg/mL (≈ 12.2 µM) | 2.3 µg/mL (≈ 12.2 µM) | 0.9 | 2.1 µg/mL (≈ 11.2 µM) |  |  | 
15 | N#CC1CN1C(=O)Nc1ccc(S(N)(=O)=O)cc1 (centres unmarked) [AMP 422, 2-Cyanoaziridine-1-[N-(4-sulfamylphenyl)]carboxamide] | 50 µg/mL (≈ 188 µM) | > 10 µg/mL |  | > 10 µg/mL |  |  | 
16 | N#CC1CN1C(=O)Nc1cccc2ccccc12 (centres unmarked) [AMP 423, 2-Cyanoaziridine-1-[N-(1-naphthyl)]carboxamide] | 1 µg/mL (≈ 4.21 µM) | 1.7 µg/mL (≈ 7.17 µM) | 0.4 | 0.64 µg/mL (≈ 2.7 µM) |  |  | 
17 | CC(=O)Oc1ccccc1NC(=O)N1CC1C#N (centres unmarked) [AMP 424, 2-Cyanoaziridine-1-[N-(2-acetoxyphenyl)]carboxamide] |  |  | 1.0 |  | > 10 µg/mL | > 10 µg/mL | > 10 µg/mL
18 | CC(=O)c1cccc(NC(=O)N2CC2C#N)c1 (centres unmarked) [AMP 425, 2-Cyanoaziridine-1-[N-(3-acetylphenyl)]carboxamide] | 1.8 µg/mL (≈ 7.85 µM) | 2.2 µg/mL (≈ 9.6 µM) | 0.8 | 1.8 µg/mL (≈ 7.85 µM) |  |  | 
